Columns and labels:
velvetleaf [1] = experiment: Test A postemergence; type: in vivo, Abutilon theophrasti
Outline: (§1)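 Injury scores run from 0, no effect, to 100, complete control, judged by eye against untreated plants roughly 10 days after treatment. Chemicals carried a surfactant in a non-phytotoxic solvent and went onto loam–sand soil preemergence or onto one- to two-leaf seedlings postemergence.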

large (Lg) crabgrass [2] = experiment: Test A preemergence; type: in vivo, Digitaria sanguinalis
Outline: as §1

pigweed [3] = experiment: Test A postemergence; type: in vivo, Amaranthus retroflexus
Outline: as §1

sedge, umbrella = experiment: Test B flooded paddy test; type: in vivo, Cyperus difformis; conditions: Flood, 250 g ai/ha; 0 to 100 scale where 0 is no effect and 100 is complete control
Outline: (§2)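 Visual ratings on a 0 to 100 scale, where 100 means complete control, compared treated plants with controls after 13 to 15 days in a greenhouse. Treatment went into paddy water 3 cm deep over the soil, applied to plants at the 2-leaf stage.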

rice = experiment: Test B flooded paddy test; type: in vivo, Oryza sativa; conditions: Flood, 250 g ai/ha; 0 to 100 scale where 0 is no effect and 100 is complete control
Outline: as §2

corn [4] = experiment: Test A postemergence; type: in vivo, Zea mays
Outline: as §1

giant foxtail [5] = experiment: Test A postemergence; type: in vivo, Setaria faberii
Outline: as §1

giant foxtail [6] = experiment: Test A preemergence; type: in vivo, Setaria faberii
Outline: as §1

morningglory [7] = experiment: Test A postemergence; type: in vivo, Ipomoea spp.
Outline: as §1

morningglory [8] = experiment: Test A preemergence; type: in vivo, Ipomoea spp.
Outline: as §1

Heteranthera limosa = experiment: Test B flooded paddy test; type: in vivo; conditions: Flood, 250 g ai/ha; 0 to 100 scale where 0 is no effect and 100 is complete control
Outline: as §2

corn [9] = experiment: Test A preemergence; type: in vivo, Zea mays
Outline: as §1

barnyardgrass [10] = experiment: Test B flooded paddy test; type: in vivo, Echinochloa crus-galli; conditions: Flood, 250 g ai/ha; 0 to 100 scale where 0 is no effect and 100 is complete control
Outline: as §2

velvetleaf [11] = experiment: Test A preemergence; type: in vivo, Abutilon theophrasti
Outline: as §1

barnyardgrass [12] = experiment: Test A preemergence; type: in vivo, Echinochloa crus-galli
Outline: as §1

large (Lg) crabgrass [13] = experiment: Test A postemergence; type: in vivo, Digitaria sanguinalis
Outline: as §1

wheat [14] = experiment: Test A preemergence; type: in vivo, Triticum aestivum
Outline: as §1

wheat [15] = experiment: Test A postemergence; type: in vivo, Triticum aestivum
Outline: as §1

barnyardgrass [16] = experiment: Test A postemergence; type: in vivo, Echinochloa crus-galli
Outline: as §1

pigweed [17] = experiment: Test A preemergence; type: in vivo, Amaranthus retroflexus
Outline: as §1

[18] = 1000 g ai/ha, 0 to 100 scale, 0 no effect, 100 complete control
[19] = 1000 g ai/ha, 0 to 100 scale, 0 no effect, 100 complete control, approx. 10 days
[20] = 125 g ai/ha, 0 to 100 scale where 0 is no effect and 100 is complete control
[21] = 500 g ai/ha, 0 to 100 scale, 0 no effect, 100 complete control
[22] = 500 g ai/ha, 0 to 100 scale, 0 no effect, 100 complete control, approx. 10 days
[23] = 500 g ai/ha, 0 to 100 scale where 0 is no effect and 100 is complete control
[24] = 125 g ai/ha, 0 to 100 scale, 0 no effect, 100 complete control

Compound: N#Cc1cccc(Oc2ncc(Cl)cn2)c1-n1cncn1 [Compound 193]
- Plant response rating, Velvetleaf (velvetleaf [1]; [18]): 90
- Crabgrass, Large plant response rating (large (Lg) crabgrass [2]; [19]): 100
- Plant response rating, Pigweed (pigweed [3]; [18]): 100
- Plant response rating, Sedge, Umbrella (sedge, umbrella): 0
- Plant response rating, Rice (rice): 0
- Plant response rating, Corn (corn [4]; [18]): 60
- Plant response rating, Foxtail, Giant (giant foxtail [5]; [18]): 80
- Foxtail, Giant plant response rating (giant foxtail [6]; [19]): 100
- Plant response rating, Morningglory (morningglory [7]; [18]): 90
- Morningglory plant response rating (morningglory [8]; [19]): 100
- Plant response rating, Ducksalad (Heteranthera limosa): 0
- Corn plant response rating (corn [9]; [19]): 20
- Plant response rating, Barnyardgrass (barnyardgrass [10]): 0
- Velvetleaf plant response rating (velvetleaf [11]; [19]): 90
- Barnyardgrass plant response rating (barnyardgrass [12]; [19]): 60
- Plant response rating, Crabgrass, Large (large (Lg) crabgrass [13]; [18]): 80
- Wheat plant response rating (wheat [14]; [19]): 20
- Plant response rating, Wheat (wheat [15]; [18]): 20
- Plant response rating, Barnyardgrass (barnyardgrass [16]; [18]): 90
- Pigweed plant response rating (pigweed [17]; [19]): 100

Compound: Clc1cnc(Oc2ccccc2-n2cc(-c3ccccc3)cn2)nc1 [Compound 22]
- Plant response rating, Velvetleaf (velvetleaf [1]; [20]): 50
- Plant response rating, Velvetleaf (velvetleaf [1]; [21]): 100
- Plant response rating, Crabgrass, Large (large (Lg) crabgrass [2]; [20]): 20
- Crabgrass, Large plant response rating (large (Lg) crabgrass [2]; [22]): 90
- Plant response rating, Pigweed (pigweed [3]; [20]): 50
- Plant response rating, Pigweed (pigweed [3]; [21]): 100
- Plant response rating, Sedge, Umbrella (sedge, umbrella): 80
- Plant response rating, Rice (rice): 40
- Plant response rating, Corn (corn [4]; [20]): 0
- Plant response rating, Corn (corn [4]; [21]): 30
- Plant response rating, Foxtail, Giant (giant foxtail [5]; [20]): 40
- Plant response rating, Foxtail, Giant (giant foxtail [5]; [21]): 90
- Plant response rating, Foxtail, Giant (giant foxtail [6]; [20]): 20
- Foxtail, Giant plant response rating (giant foxtail [6]; [22]): 90
- Plant response rating, Morningglory (morningglory [7]; [20]): 80
- Plant response rating, Morningglory (morningglory [7]; [21]): 90
- Plant response rating, Morningglory (morningglory [8]; [20]): 0
- Morningglory plant response rating (morningglory [8]; [22]): 0
- Plant response rating, Ducksalad (Heteranthera limosa): 65
- Plant response rating, Corn (corn [9]; [20]): 0
- Corn plant response rating (corn [9]; [22]): 0
- Plant response rating, Barnyardgrass (barnyardgrass [10]): 20
- Plant response rating, Velvetleaf (velvetleaf [11]; [20]): 0
- Velvetleaf plant response rating (velvetleaf [11]; [22]): 20
- Plant response rating, Barnyardgrass (barnyardgrass [12]; [20]): 0
- Barnyardgrass plant response rating (barnyardgrass [12]; [22]): 20
- Plant response rating, Crabgrass, Large (large (Lg) crabgrass [13]; [20]): 30
- Plant response rating, Crabgrass, Large (large (Lg) crabgrass [13]; [21]): 70
- Plant response rating, Wheat (wheat [14]; [20]): 0
- Wheat plant response rating (wheat [14]; [22]): 0
- Plant response rating, Wheat (wheat [15]; [20]): 0
- Plant response rating, Wheat (wheat [15]; [21]): 0
- Plant response rating, Barnyardgrass (barnyardgrass [16]; [20]): 50
- Plant response rating, Barnyardgrass (barnyardgrass [16]; [21]): 70
- Plant response rating, Pigweed (pigweed [17]; [20]): 20
- Pigweed plant response rating (pigweed [17]; [22]): 90

Compound: O=Cc1cccc(Oc2ncc(Cl)cn2)c1-n1cc(I)cn1 [Compound 182]
- Velvetleaf plant response rating (velvetleaf [1]; [20]): 30
- Plant response rating, Velvetleaf (velvetleaf [1]; [23]): 30
- Crabgrass, Large plant response rating (0 to 100 scale) (large (Lg) crabgrass [2]; 125 g ai/ha): 0
- Crabgrass, Large plant response rating (large (Lg) crabgrass [2]; [23]): 30
- Pigweed plant response rating (pigweed [3]; [20]): 30
- Plant response rating, Pigweed (pigweed [3]; [23]): 90
- Plant response rating, Sedge, Umbrella (sedge, umbrella): 0
- Plant response rating, Rice (rice): 0
- Corn plant response rating (corn [4]; [20]): 0
- Plant response rating, Corn (corn [4]; [23]): 0
- Foxtail, Giant plant response rating (giant foxtail [5]; [20]): 0
- Plant response rating, Foxtail, Giant (giant foxtail [5]; [23]): 0
- Foxtail, Giant plant response rating (0 to 100 scale) (giant foxtail [6]; 125 g ai/ha): 0
- Foxtail, Giant plant response rating (giant foxtail [6]; [23]): 20
- Morningglory plant response rating (morningglory [7]; [20]): 0
- Plant response rating, Morningglory (morningglory [7]; [23]): 0
- Morningglory plant response rating (0 to 100 scale) (morningglory [8]; 125 g ai/ha): 0
- Morningglory plant response rating (morningglory [8]; [23]): 0
- Plant response rating, Ducksalad (Heteranthera limosa): 0
- Corn plant response rating (0 to 100 scale) (corn [9]; 125 g ai/ha): 0
- Corn plant response rating (corn [9]; [23]): 0
- Plant response rating, Barnyardgrass (barnyardgrass [10]): 0
- Velvetleaf plant response rating (0 to 100 scale) (velvetleaf [11]; 125 g ai/ha): 0
- Velvetleaf plant response rating (velvetleaf [11]; [23]): 0
- Barnyardgrass plant response rating (0 to 100 scale, 0 is no effect, 100 is complete control) (barnyardgrass [12]; 125 g ai/ha): 0
- Barnyardgrass plant response rating (barnyardgrass [12]; [23]): 20
- Crabgrass, Large plant response rating (large (Lg) crabgrass [13]; [20]): 0
- Plant response rating, Crabgrass, Large (large (Lg) crabgrass [13]; [23]): 0
- Wheat plant response rating (0 to 100 scale) (wheat [14]; 125 g ai/ha): 0
- Wheat plant response rating (wheat [14]; [23]): 0
- Wheat plant response rating (wheat [15]; [20]): 0
- Plant response rating, Wheat (wheat [15]; [23]): 0
- Barnyardgrass plant response rating (barnyardgrass [16]; [20]): 0
- Plant response rating, Barnyardgrass (barnyardgrass [16]; [23]): 0
- Pigweed plant response rating (0 to 100 scale) (pigweed [17]; 125 g ai/ha): 90
- Pigweed plant response rating (pigweed [17]; [23]): 100

Compound: Clc1cnc(Oc2cccc(-c3ncco3)c2-n2cc(Br)cn2)nc1 [Compound 287]
- Plant response rating, Velvetleaf (velvetleaf [1]; [24]): 10
- Plant response rating, Velvetleaf (velvetleaf [1]; [23]): 20
- Crabgrass, Large plant response rating (0 to 100 scale) (large (Lg) crabgrass [2]; 125 g ai/ha): 0
- Crabgrass, Large plant response rating (large (Lg) crabgrass [2]; [23]): 70
- Plant response rating, Pigweed (pigweed [3]; [24]): 30
- Plant response rating, Pigweed (pigweed [3]; [23]): 50
- Plant response rating, Sedge, Umbrella (sedge, umbrella): 0
- Plant response rating, Rice (rice): 0
- Plant response rating, Corn (corn [4]; [24]): 0
- Plant response rating, Corn (corn [4]; [23]): 0
- Plant response rating, Foxtail, Giant (giant foxtail [5]; [24]): 0
- Plant response rating, Foxtail, Giant (giant foxtail [5]; [23]): 0
- Foxtail, Giant plant response rating (0 to 100 scale) (giant foxtail [6]; 125 g ai/ha): 0
- Foxtail, Giant plant response rating (giant foxtail [6]; [23]): 40
- Plant response rating, Morningglory (morningglory [7]; [24]): 10
- Plant response rating, Morningglory (morningglory [7]; [23]): 20
- Morningglory plant response rating (0 to 100 scale) (morningglory [8]; 125 g ai/ha): 0
- Morningglory plant response rating (morningglory [8]; [23]): 0
- Plant response rating, Ducksalad (Heteranthera limosa): 0
- Corn plant response rating (0 to 100 scale) (corn [9]; 125 g ai/ha): 0
- Corn plant response rating (corn [9]; [23]): 0
- Plant response rating, Barnyardgrass (barnyardgrass [10]): 0
- Velvetleaf plant response rating (0 to 100 scale) (velvetleaf [11]; 125 g ai/ha): 0
- Velvetleaf plant response rating (velvetleaf [11]; [23]): 0
- Barnyardgrass plant response rating (0 to 100 scale, 0 is no effect, 100 is complete control) (barnyardgrass [12]; 125 g ai/ha): 0
- Barnyardgrass plant response rating (barnyardgrass [12]; [23]): 0
- Plant response rating, Crabgrass, Large (large (Lg) crabgrass [13]; [24]): 10
- Plant response rating, Crabgrass, Large (large (Lg) crabgrass [13]; [23]): 20
- Wheat plant response rating (0 to 100 scale) (wheat [14]; 125 g ai/ha): 0
- Wheat plant response rating (wheat [14]; [23]): 0
- Plant response rating, Wheat (wheat [15]; [24]): 0
- Plant response rating, Wheat (wheat [15]; [23]): 0
- Plant response rating, Barnyardgrass (barnyardgrass [16]; [24]): 0
- Plant response rating, Barnyardgrass (barnyardgrass [16]; [23]): 0
- Pigweed plant response rating (0 to 100 scale) (pigweed [17]; 125 g ai/ha): 0
- Pigweed plant response rating (pigweed [17]; [23]): 100
